Source: paper PMC8953385, “2-Styrylchromones: Cytotoxicity and Modulation of Human Neutrophils’ Oxidative Burst” (Pharmaceuticals, 2022)

Tests used:
[1] = O2•−, cited from earlier work
[2] = tested on: human neutrophils; assay: Annexin V/PI flow cytometric assay of neutrophils’ viability; type: cell-based; details: for Higher 2-SC concentration that did not affect human neutrophils’ viability: annexin V/PI assay, 40 min incubation at 37 °C
Source text: (§1) Following the Declaration of Helsinki and the approval of patient-related procedures and protocols by the Ethics Committee of Centro Hospitalar do Porto, Portugal, venous blood was collected from healthy human blood donors, after informed consent. The blood was stored into K3EDTA vacuum tubes after antecubital venipuncture of the donors. In order to obtain the isolated neutrophils, the density gradient centrifugation method was applied, as previously reported, with modifications. In brief, in a 15 mL polypropylene tube, 3 mL of histopaque 1119 were added followed by 3 mL of histopaque 1077 and finally, 4.5 mL of the collected blood were slowly added. Each tube was centrifuged at 900× g at 20 °C for 30 min, with a medium acceleration and deceleration speed. Following centrifugation, the neutrophils’ portion was harvested, and PBS was added to double the volume. The neutrophils’ suspension was then centrifuged at 850× g at 4 °C for 5 min, using a maximum acceleration and deceleration speed. The supernatant was discarded, and the neutrophils’ pellet was resuspended in PBS and afterward milli-Q water was added to lyse the residual erythrocytes. The tube was gently homogenized and after a few minutes, 3% NaCl was added to restore isotony, and then centrifuged again at 850× g at 4 °C for 5 min, using a maximum acceleration and deceleration speed. The supernatant was discarded, and a neutrophils’ pellet was obtained. After isolation, the neutrophils’ pellet was resuspended in the incubation media, tris-glucose buffer (25 mM Trizma® base, 5.5 mM D-glucose, 140 mM NaCl, 1.26 mM CaCl2, 0.81 mM MgSO4, 5.37 mM KCl, pH = 7.4). Neutrophils’ suspension was kept on ice, under soft shaking, until use. The trypan blue exclusion method was used to determine cells’ yield and viability.
(§2) The effect of the studied 2-SC on neutrophils’ viability was assessed by flow cytometry, after simultaneous staining with FITC Annexin V and propidium iodide (PI) (Figure S1), as previously reported by our research group, with modifications. After isolation, neutrophils (1 × 10^6 cells/mL) were incubated with 2-SC (up to 100.00 μM) or DMSO for 40 min, at 37 °C, in a 48-well plate. At the end of incubation, the content of each well was transferred to conical microtubes and centrifuged at 400× g at 20 °C for 5 min. After discarding the supernatant, the neutrophils’ pellet was resuspended in PBS and centrifuged under the previous conditions. Once the supernatant was removed, the pellet was resuspended in 10× diluted binding buffer, and then PI and annexin V were added. This mixture was incubated in the dark at room temperature for 15 min, and finally, 10× diluted binding buffer was added. In a flow cytometer, the fluorescence signal, of at least 10,000 cells/sample, were collected in logarithmic mode and followed in channels 1 and 3. The green fluorescence corresponding to annexin V FITC was accompanied in channel 1 and plotted as a histogram of FL1 staining, whereas the fluorescence corresponding to PI was monitored in channel 3 and plotted in the same histogram but as FL3 staining. The collected data were analyzed with the BD Accuri™ C6 software. The data analysis was restricted to the neutrophils’ population. Thus, according to the light-scattering properties of neutrophils (in a forward versus side scatter plot), a polygon gate was drawn, where debris and other blood cells were excluded. The effect of 2-SC on neutrophils’ viability was expressed as a relative percentage of apoptotic and/or necrotic cells when compared to the control (without 2-SC).

[3] = tested on: human neutrophils’ oxidative burst; assay: Neutrophils’ oxidative burst, PMA stimulation, luminol chemiluminescence; type: cell-based; details: Homo sapiens, Neutrophil
Source text: as §1
The effect of 2-SC on the modulation of neutrophils’ oxidative burst was assessed after the stimulation of these cells with PMA by monitoring the oxidation of chemiluminescent probe, luminol, by the generated reactive species (Figure S2), according to a previously described methodology. Briefly, neutrophils (1 × 10^6 cells/mL) were pre-incubated with luminol (500.00 μM), and 2-SC (0.00–100.00 μM) or DMSO, at the final concentrations indicated. After this pre-incubation, at 37 °C for 5 min, PMA (160.00 nM) was added, and in turn, neutrophils’ stimulation was initiated. Kinetic readings were immediately initiated and followed for 40 min, at 37 °C, in a microplate reader. The arbitrary chemiluminescence value was taken at the peak of the curve, and the results were expressed as the inhibition percentage of luminol oxidation.
GraphPad Prism 6 software was used to plot the curves of percentage of inhibition versus concentrations of compound, from which the concentration that produces 50% of inhibition (IC50) was determined. GraphPad Prism 6 software was also used to perform all statistical analyses. […] In all cases, p-values < 0.05 were considered statistically significant. The results are expressed as mean ± standard error of the mean (SEM).

[4] = Annexin V/PI flow cytometric assay of neutrophils’ viability; type: cell-based, human; details: human, isolated human neutrophils, pH 7.4, representative plot, Figure 4, read-out: Viable cells [annexin V (−)/PI (−)], lower left quadrant
Source text: as §1, §2

COc1ccc(/C=C/c2cc(=O)c3ccc(O)c(O)c3o2)cc1OC [C8]
Scavenging activity of reactive species ([1]; 1O2, •NO and ONOO−): good scavenging activity
Higher 2-SC concentration that did not affect human neutrophils’ viability [2]: 6.25 µM
IC50 ([3]; PMA 160.00 nM, luminol 500.00 μM, mean ± SEM, read-out: IC50, inhibition of human neutrophils’ oxidative burst): 1400 ± 200 nM

O=c1cc(/C=C/c2ccccc2)oc2cc(O)cc(O)c12 [A4]
viability at 40 min, 25 µM ([4]; 25.00 μM): 88.4%
viability at 40 min, 50 µM ([4]; 50.00 μM): 63.8%
Effect on total neutrophils’ population percentage ([2]; 50.00 μM): significantly affected the total neutrophils’ population percentage
Induction of late apoptosis ([2]; 50.00 μM): induced late apoptosis
Higher 2-SC concentration that did not affect human neutrophils’ viability [2]: 25.00 µM
inhibition at 25 µM ([3]; 25.00 µM (highest tested concentration), read-out: Inhibitory activity (% ± SEM), neutrophils’ oxidative burst): < 30%

O=c1cc(/C=C/c2ccccc2)oc2cc(O)ccc12 [A3]
viability at 40 min, 75 µM ([4]; 75.00 μM): 84.3%
Effect on human neutrophils’ viability ([2]; 75.00 μM): showed no effect on human neutrophils’ viability
Higher 2-SC concentration that did not affect human neutrophils’ viability [2]: 75.00 µM
inhibition at 75 µM ([3]; 75.00 µM (highest tested concentration), read-out: Inhibitory activity (% ± SEM), neutrophils’ oxidative burst): 53 ± 4%

O=c1cc(/C=C/c2ccc(O)cc2)oc2cccc(O)c12 [B2]
Scavenging of reactive species ([1]; H2O2, HOCl, 1O2, •NO, ONOO−): much less active or inactive
Higher 2-SC concentration that did not affect human neutrophils’ viability [2]: 6.25 µM
